Paper PMC7037671, “Naphthoquinone Derivatives with Anti-Inflammatory Activity from Mangrove-Derived Endophytic Fungus Talaromyces sp. SK-S009” (Molecules, 2020)
Like-named read-outs stand apart in the source and are kept apart here.

Legend:
[1] = system: LPS-induced NO production in the murine macrophage cell line (RAW 264.7 cells); assay: Inhibition of LPS-induced NO production (Griess reagent); format: cell-based; conditions: Mus musculus, read-out: IC50 against LPS-induced NO production
Experimental: (§1) The nitrite/nitrate oxidized from NO was detected by the Griess reagent as previously reported with slight modifications. The murine macrophage cell line (RAW 264.7 cells) were seeded in 96-well plates at a density of 1 × 10^5 cells/well and preincubated for 12 h. The tested compounds were dissolved in dimethylsulfoxide (DMSO) and diluted with Dulbecco’s Modified Eagle Medium (DMEM) medium to a final concentration (final DMSO concentration <0.1% in all assays). Indomethacin was used as the positive control. Cells were stimulated with 1µg/mL of lipopolysaccharide (LPS, Sigma, St. Louis, MO, USA) with or without tested compounds for 24 h. Then culture supernatant was mixed with an equal volume of Griess reagent I and II (Beyotime, Shanghai, China), and measured at 540 nm using a microplate reader (Bio-Rad Laboratories, Inc., Kyoto, Japan). Cell viability was evaluated using MTT assay.

RAW 264.7 cells = assay: Cytotoxicity / cell viability by MTT assay; format: cell-based, murine; conditions: CC50 (MTT) / IC50 (NO production)
Experimental: as §1

[2] = Cytotoxicity / cell viability by MTT assay; format: cell-based, murine; conditions: mouse, RAW 264.7 cells, MTT assay
Experimental: as §1

[3] = system: cyclooxygenase-2 (COX-2) mRNA; assay: Real-time PCR, COX-2 mRNA expression in LPS-stimulated RAW 264.7 cells; format: cell-based, murine; conditions: LPS (1 μg/mL) 12 h, 1 h pretreatment, 1, 2, 4 μM, RT-PCR
Experimental: (§2) Figure 4 RAW 264.7 murine macrophage cells were pre-incubated for 12h, and then cells were pretreated with compound 9 at the indicated concentration for 1 h and incubated with LPS (1 μg/mL) for 12h (real-time PCR). The effect of compound 9 on the mRNA expressions of inducible nitric oxide synthase (iNOS) (A), cyclooxygenase-2 (COX-2)(B), tumor necrosis factor (TNF)-α (C), interleukin (IL)-6 (D), and IL-1β (E) were detected by real-time PCR. The data represent the mean values ± SD of three experiments, * p < 0.05, ** p < 0.01 compared to LPS-treated group.
(§3) RAW264.7 cells were placed in a 6-well plate at a density of 1 × 10^6 cells/well and incubated for 12 h. Cultured cells were pretreated with compound 9 (1, 2, 4 μM/L) for 1 h and incubated with LPS (1 μg/mL) for 12 h. RNA was extracted with Trizol Reagent (Takara Bio Inc., Otsu, Japan) according to the manufacturer’s instructions, and cDNA was reverse transcribed from total RNA using a Superscript III system (Takara Bio Inc., Otsu, Japan). PCR amplification was carried out using PikoReal™ (Thermo Fisher Scientific, MA, US) and specific primers. The optimal conditions for PCR amplification of the cDNA were established by following the manufacturer’s instructions. Relative gene expression was calculated using the comparative Ct method (2^−ΔΔCt) with glyceraldehyde-3-phosphate dehydrogenase (GAPDH) as an internal control. […]

[4] = system: inducible nitric oxide synthase (iNOS) mRNA; assay: Real-time PCR, iNOS mRNA expression in LPS-stimulated RAW 264.7 cells; format: cell-based, murine; conditions: LPS (1 μg/mL) 12 h, 1 h pretreatment, 1, 2, 4 μM, RT-PCR
Experimental: as §2, §3

interleukin (IL)-1β mRNA = assay: Real-time PCR, IL-1β mRNA expression in LPS-stimulated RAW 264.7 cells; format: cell-based, murine
Experimental: as §2, §3

[5] = system: tumor necrosis factor (TNF)-α mRNA; assay: Real-time PCR, TNF-α mRNA expression in LPS-stimulated RAW 264.7 cells; format: cell-based, murine
Experimental: as §2, §3

IL-6 mRNA = assay: Real-time PCR, IL-6 mRNA expression in LPS-stimulated RAW 264.7 cells; format: cell-based, murine
Experimental: as §2, §3

[6] = RAW264.7, RAW 264.7 cells, LPS 1 µg/mL, 24 h, means ± SD, n = 3
[7] = RAW 264.7 macrophage cells, means ± SD, n = 3, read-out: CC50
[8] = RAW 264.7 macrophage cells, tested at 50 μM, read-out: CC50 (cytotoxicity, class symbol)
[9] = 2.0 μM, compared with the control groups
[10] = LPS (1 μg/mL) 12 h, 1 h pretreatment, 1, 2, 4 μM, RT-PCR

In the case of `COc1cc(O)c2c(c1)C(=O)C(C[C@H](C)O)=C(C)C2=O` [Compound 1, Talanaphthoquinone A], the IC50 [1, 6] is reported as 3.9 ± 0.5 µM, the “SI (selectivity index, CC50/IC50)” value (RAW 264.7 cells) is reported as 7.9 and the CC50 at 24 h [2, 7] is reported as 30.7 ± 0.5 µM.

In the case of `COC1=CC(=O)c2c(O)c(C)c3c(c2C1=O)OC(CO)C3` (stereo not shown) [Compound 2, Talanaphthoquinone B], the melting point is reported as 157.7 to 159.3 °C, the IC50 [1, 6] is reported as 49.7 ± 1.5 µM and the CC50 at 24 h [2, 8] is reported as > 50 µM.

With `COC1=CC(=O)c2c(O)c(C)c3c(c2C1=O)OC(C)C3` (stereo not shown) [Compound 3, anhydrojavanicin] the IC50 [1, 6] was 16 ± 0.2 µM and the CC50 at 24 h ([2]; tested at 50 μM, read-out: CC50 (cytotoxicity, class symbol)) was > 50 µM.

In the case of `COC1=CC(=O)c2c(O)c(CO)c3c(c2C1=O)OC(C)C3` (stereo not shown) [Compound 4, 2,3-dihydro-5-hydroxy-4-hydroxymethyl-8-methoxy-2-methylnaphtho[1,2-b]furan-6,9-dione], the IC50 [1, 6] is reported as 22.6 ± 0.5 µM and the CC50 at 24 h [2, 8] is reported as > 50 µM.

For `COC1=CC(=O)c2c(O)c(C)c3cc(C)oc3c2C1=O` [Compound 5, anhydrojavanicin], the IC50 [1, 6] was 11.2 ± 0.3 µM and the CC50 at 24 h [2, 8] was > 50 µM.

For `COC1=CC(=O)c2c(O)c3c(c(O)c2C1=O)C=C(C)OC3` [Compound 6, anhydrofusarubin], the IC50 ([1]; RAW264.7, 24 h) was 5.2 ± 0.1 µM and the CC50 at 24 h [2, 8] was > 50 µM.

In the case of `CCc1c(OC)cc2c(c1O)C(=O)C=C(OC)C2=O` [Compound 8, 6-ethyl-2,7-dimethoxyjuglone], the IC50 [1, 6] is reported as 7.7 ± 0.3 µM and the CC50 at 24 h [2, 8] is reported as > 50 µM.

In the case of `COC1=CC(=O)c2c(cc(OC)c(C(C)OC(C)=O)c2O)C1=O` (stereo not shown) [Compound 9, 6-[1-(acetyloxy)ethyl]-5-hydroxy-2,7-dimethoxy-1,4-naphthalenedione], the “effect on COX-2 mRNA expression” value [3] is reported as “apparently reduced”, the “effect on iNOS mRNA expression” value [4] is reported as “apparently reduced” and the IC50 [1, 6] is reported as 1.7 ± 0.2 µM. For the same molecule, the “inhibition of IL-1β mRNA expression” value (interleukin (IL)-1β mRNA; [9]) was “about 80%”, the “effect on IL-1β mRNA expression” value (interleukin (IL)-1β mRNA; [10]) was “apparently reduced” and the “inhibition of TNF-α mRNA expression” value [5, 9] was “about 80%”. For the same molecule, the “effect on TNF-α mRNA expression” value [5, 10] was “apparently reduced”, the “inhibition of IL-6 mRNA expression” value (IL-6 mRNA; [9]) was “about 80%” and the “effect on IL-6 mRNA expression” value (IL-6 mRNA; [10]) was “apparently reduced”. For the same molecule, the “SI (selectivity index, CC50/IC50)” value (RAW 264.7 cells) was 29.6 and the CC50 at 24 h [2, 7] was 50.3 ± 1.5 µM.

With `COC1=CC(=O)c2c(cc(OC)c(C(C)O)c2O)C1=O` (stereo not shown) [Compound 10, 5-hydroxy-6-(1-hydroxyethyl)-2,7-dimethoxy-1,4-naphthalenedione] the IC50 [1, 6] was 7.5 ± 0.2 µM, the “SI (selectivity index, CC50/IC50)” value (RAW 264.7 cells) was 2.1 and the CC50 at 24 h [2, 7] was 15.8 ± 0.4 µM.

For `COC1=CC(=O)c2c(O)c(C)c(CC(C)O)c(O)c2C1=O` (stereo not shown) [Compound 11, solaniol], the IC50 [1, 6] was 15.5 ± 0.6 µM, the “SI (selectivity index, CC50/IC50)” value (RAW 264.7 cells) was 3.8 and the CC50 at 24 h ([2]; means ± SD, n = 3, read-out: CC50) was 59.2 ± 1.5 µM.

In the case of `COC1=CC(=O)c2c(O)c(C)c(CC(C)=O)c(O)c2C1=O` [Compound 12, javanicin], the IC50 [1, 6] is reported as 5.6 ± 0.3 µM, the “SI (selectivity index, CC50/IC50)” value (RAW 264.7 cells) is reported as 8.6 and the CC50 at 24 h [2, 7] is reported as 48.4 ± 1.3 µM.

With `COc1ccc2c(c1)c(CC(=O)O)c(C)n2C(=O)c1ccc(Cl)cc1` [Indomethacin, reference compound] the IC50 [1, 6] was 26.3 ± 0.6 µM.
